Drawing on paper PMC9596378, “Discovery and molecular basis of subtype-selective cyclophilin inhibitors” (Nature Chemical Biology, 2022), this text covers IC50 for 2 compounds.

Read-outs that look alike come from different tables or passages of the source.

Common to all, as to experiment: Chymotrypsin coupled prolyl-isomerase assay
Experiment [1] concerns the target T1, CypA (Homo sapiens, UniProt P62937).
T1 construct: PPIA (UniProtKB Entry P62937: residues 1–165); made in house; host or cells: E. coli BL21(DE3)
Format: biochemical. Put shortly:
(§1)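 Cyclophilin (5 nM final) in 25 mM HEPES pH 7.3, 100 mM NaCl, 0.01% Triton X-100 was preincubated with compound (0.25% DMSO) 5 min at 2–3 °C, then with 25 µM α-chymotrypsin 5 min. Suc-AAPF-AMC (5 µM, in LiCl/trifluoroethanol) started the reaction; AMC fluorescence read every 1 s for 330 s.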

Experiment [2] addresses T2, CypG (Homo sapiens, UniProt Q13427).
T2 construct: PPIG (UniProtKB Entry Q13427: residues 1–179); His6 with thrombin site (pET28a LIC leader) (N); host or cells: E. coli BL21(DE3)
T2 sequence (Q13427 1-179): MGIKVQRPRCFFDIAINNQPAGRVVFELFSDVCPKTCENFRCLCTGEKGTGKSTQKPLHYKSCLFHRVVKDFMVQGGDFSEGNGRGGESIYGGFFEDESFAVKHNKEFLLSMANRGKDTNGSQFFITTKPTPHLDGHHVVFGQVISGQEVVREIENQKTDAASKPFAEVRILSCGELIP
Format: biochemical. The following applies: wild-type CypG; read-out: Wild-Type Cyclophilin Prolyl Isomerase Inhibition IC50 Values, CypG. Put shortly:
as §1

The target in experiment [3] is T3, CypH (Homo sapiens, UniProt O43447).
T3 construct: PPIH (UniProtKB Entry O43447: residues 1–177); His6 with TEV site (2BT vector leader) (N); made in house; host or cells: E. coli BL21(DE3)
Format: biochemical. Put shortly:
as §1

Experiment [4] deals with T4, PPWD1 (Homo sapiens, UniProt Q96BP3).
T4 construct: PPWD1 (UniProtKB Entry Q96BP3: residues 473–646); host or cells: E. coli BL21(DE3)
T4 sequence (Q96BP3 473-646): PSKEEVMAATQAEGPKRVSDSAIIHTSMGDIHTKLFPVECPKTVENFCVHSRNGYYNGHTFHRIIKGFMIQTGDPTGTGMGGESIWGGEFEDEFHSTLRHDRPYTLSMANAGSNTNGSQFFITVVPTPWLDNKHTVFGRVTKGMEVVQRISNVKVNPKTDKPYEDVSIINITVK
Format: biochemical. Particulars: wild-type PPWD1; read-out: Wild-Type Cyclophilin Prolyl Isomerase Inhibition IC50 Values, PPWD1.

Experiment [5] has as its target T5, PPIL1 (Homo sapiens, UniProt Q9Y3C6).
T5 construct: PPIL1 (UniProtKB Entry Q9Y3C6: residues 1–166); made in house; host or cells: E. coli BL21(DE3)
T5 sequence (Q9Y3C6 1-166): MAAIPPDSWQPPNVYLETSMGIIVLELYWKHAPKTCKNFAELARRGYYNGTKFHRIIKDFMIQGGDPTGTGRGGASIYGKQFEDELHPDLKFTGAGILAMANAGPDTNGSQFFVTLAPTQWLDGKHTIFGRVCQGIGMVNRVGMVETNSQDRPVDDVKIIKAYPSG
It is filed as biochemical.

In experiment [6] the target is CypD (Homo sapiens, UniProt P30405).
[7] abbreviates: prolyl-isomerase inhibition, 5 nM cyclophilin, read-out: IC50 CypA.
Where [8] appears, read: wild-type CypA, read-out: Wild-Type Cyclophilin Prolyl Isomerase Inhibition IC50 Values, CypA.
[9] abbreviates: prolyl-isomerase inhibition, 5 nM cyclophilin, read-out: IC50 CypH.
[10] abbreviates: wild-type CypH, read-out: Wild-Type Cyclophilin Prolyl Isomerase Inhibition IC50 Values, CypH.
The mark [11] stands for this setting: wild-type PPIL1, read-out: Wild-Type Cyclophilin Prolyl Isomerase Inhibition IC50 Values, PPIL1.

Chain of CypD (P30405 45-207): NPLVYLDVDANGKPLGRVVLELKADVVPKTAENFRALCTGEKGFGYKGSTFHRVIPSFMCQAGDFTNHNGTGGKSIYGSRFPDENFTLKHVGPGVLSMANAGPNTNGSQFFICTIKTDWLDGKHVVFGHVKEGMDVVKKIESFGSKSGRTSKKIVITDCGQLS
T1 sequence (P62937 whole entry, the tested form may be a part): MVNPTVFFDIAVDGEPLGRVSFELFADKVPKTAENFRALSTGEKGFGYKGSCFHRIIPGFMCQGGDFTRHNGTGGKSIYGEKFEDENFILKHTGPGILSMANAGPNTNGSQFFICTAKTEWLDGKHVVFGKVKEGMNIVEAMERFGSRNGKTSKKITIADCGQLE
T3 sequence (O43447 whole entry, the tested form may be a part): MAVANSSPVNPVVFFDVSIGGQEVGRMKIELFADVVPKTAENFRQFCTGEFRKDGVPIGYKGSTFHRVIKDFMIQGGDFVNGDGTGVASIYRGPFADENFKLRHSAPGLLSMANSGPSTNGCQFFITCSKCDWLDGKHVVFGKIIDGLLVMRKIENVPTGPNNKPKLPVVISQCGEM

For orientation: IC50 means the concentration at which inhibition is half-maximal. For `NC(=O)[C@@H]1CCNC(=O)/C=C/C(=O)N2CCC[C@](Cc3ccccc3)(C2)C(=O)N[C@@H](Cc2ccc(-c3cccc(B(O)O)c3)cc2)C(=O)NCc2ccccc2CC(=O)N1` [Compound C6A], the IC50 is roughly 6 µM in experiment [1] (setting [7]); 6 µM in experiment [1] (setting [8]); 1.3 µM in experiment [2]; roughly 4 µM in experiment [3] (setting [9]); 4 µM in experiment [3] (setting [10]); greater than 10 µM in experiment [4]. Moreover, the IC50 in experiment [5] (prolyl-isomerase inhibition, 5 nM cyclophilin, read-out: IC50 PPIL1) is roughly 5 µM; in experiment [5] (setting [11]), greater than 10 µM; in experiment [6] (read-out: Wild-Type Cyclophilin Prolyl Isomerase Inhibition IC50 Values, CypD, wild-type CypD), 1.1 µM.

`NCCOCCNC(=O)C1CCNC(=O)C=CC(=O)N2CCCC(C2)C(=O)NC(Cc2ccco2)C(=O)NCc2ccccc2CC(=O)N1` (stereo not shown) [JOMBt]: the IC50 in experiment [1] (setting [7]) is roughly 60 µM; in experiment [1] (setting [8]) it was 60 µM; in experiment [2], 16 µM; in experiment [3] (setting [9]) it was roughly 100 µM; in experiment [3] (setting [10]), 100 µM; in experiment [4], greater than 100 µM. Moreover, the IC50 was 40 µM in experiment [5] (setting [11]); 17 µM in experiment [6]; 17 ± 2 µM in experiment [6] (IC50 CypD trans, trans olefin isomer); 17 µM in experiment [6] (Wild-Type Cyclophilin Prolyl Isomerase Inhibition IC50 Values, CypD, wild-type CypD).
